Assay [1] addresses human glucagon receptor (hGCGR) (Homo sapiens, UniProt P47871). Put plainly: cAMP production (HTRF) in CHO cells expressing hGCGR. It is filed as cell-based. Also on record: expressed in transfected cells. The settings on record: Table 6, peptides modified at position 17; cAMP in CHO hGCGR cells; geometric mean; read-out: hGluc-R EC50. Summed up: (§1)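 Cells were resuspended in assay buffer at batch-optimized density, typically 1×10^5 cells/mL for hGLP-1R and 2×10^5 cells/mL for hGCGR. After 30 min incubation at room temperature with compound, cAMP was measured by two-step HTRF. EC50 values came from 4-parameter logistic fits of % Delta F.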
For orientation: Cyclic AMP is a second messenger, typically raised through Gs and lowered through Gi signalling.

For assay [2], the target named is human GLP-1 receptor (hGLP-1R) (Homo sapiens, UniProt P43220). Put plainly: cAMP production (HTRF) in CHO cells expressing hGLP-1R. It is filed as cell-based. Also on record: expressed in transfected cells. The settings on record: for % Relative Potency Ratio: Table 6, % GLP-1R activity relative to GLP-1 / % GlucR activity relative to glucagon. Summed up:
as §1

Starred links: 1 amine or outer side, 2 acyl side, 3 side chain; linkers in the order of their positions; H or OH if unused. Non-standard residues stand in square brackets, D forms with d. Residues, ends and D or L forms follow the SMILES beside them. Groups on a side chain read outwards from the residue. *: point of attachment. γGlu = O=C(O)[C@H](CCC(=O)[*:2])N[*:1]; Stearoyl = CCCCCCCCCCCCCCCCCC(=O)*; Palmitoyl = CCCCCCCCCCCCCCCC(=O)*; αMeF = C[C@](N)(Cc1ccccc1)C(=O)O; Myristoyl = CCCCCCCCCCCCCC(=O)*; αMeS = C[C@](N)(CO)C(=O)O; PEG2 = NCCOCCOCCC(=O)O; Aib = CC(C)(N)C(=O)O

This note sets out measurements from patent US20250353891A1 (MEDIMMUNE LIMITED, priority 2022, published 2025).

Broadly, the EC50 is the concentration giving half of the maximal effect.

Sequence of human GLP-1 receptor (hGLP-1R) (P43220 24-463): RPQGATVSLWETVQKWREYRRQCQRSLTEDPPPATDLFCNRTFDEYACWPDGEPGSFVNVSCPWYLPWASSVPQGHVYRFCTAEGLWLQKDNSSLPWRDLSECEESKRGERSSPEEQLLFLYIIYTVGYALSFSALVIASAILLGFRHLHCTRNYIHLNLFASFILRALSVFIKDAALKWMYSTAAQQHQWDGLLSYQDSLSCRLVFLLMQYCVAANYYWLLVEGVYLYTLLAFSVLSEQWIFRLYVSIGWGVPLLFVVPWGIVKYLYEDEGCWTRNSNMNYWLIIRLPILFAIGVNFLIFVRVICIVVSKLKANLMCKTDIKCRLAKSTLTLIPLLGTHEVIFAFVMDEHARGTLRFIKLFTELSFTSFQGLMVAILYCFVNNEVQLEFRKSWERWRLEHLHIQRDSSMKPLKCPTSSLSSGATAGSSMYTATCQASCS
Sequence of human glucagon receptor (hGCGR) (P47871 26-477): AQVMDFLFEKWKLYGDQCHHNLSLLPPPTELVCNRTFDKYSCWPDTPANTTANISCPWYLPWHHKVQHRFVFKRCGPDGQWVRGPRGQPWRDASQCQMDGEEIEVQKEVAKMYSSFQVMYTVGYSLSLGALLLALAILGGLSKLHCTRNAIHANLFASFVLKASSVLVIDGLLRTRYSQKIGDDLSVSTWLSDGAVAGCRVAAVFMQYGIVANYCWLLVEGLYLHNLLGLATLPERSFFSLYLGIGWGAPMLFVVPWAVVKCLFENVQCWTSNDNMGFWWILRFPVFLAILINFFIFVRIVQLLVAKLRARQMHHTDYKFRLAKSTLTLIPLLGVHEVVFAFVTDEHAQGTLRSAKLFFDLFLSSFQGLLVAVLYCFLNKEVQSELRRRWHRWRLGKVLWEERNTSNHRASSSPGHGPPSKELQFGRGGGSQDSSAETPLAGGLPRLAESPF

As for `CCCCCCCCCCCCCCCC(=O)N[C@@H](CCC(=O)N[C@@H](CCC(=O)NCCOCCOCCC(=O)NCCOCCOCCC(=O)NCCCC[C@H](NC(=O)[C@H](CO)NC(=O)[C@H](CC(=O)O)NC(=O)[C@H](CC(C)C)NC(=O)[C@@H](NC(=O)[C@H](CCCCN)NC(=O)[C@H](CO)NC(=O)[C@@H](NC(=O)[C@H](CC(=O)O)NC(=O)[C@H](CO)NC(=O)[C@@H](NC(=O)[C@](C)(Cc1ccccc1)NC(=O)[C@H](CO)NC(=O)CNC(=O)[C@H](CCC(N)=O)NC(=O)[C@](C)(CO)NC(=O)[C@@H](N)Cc1c[nH]cn1)[C@@H](C)O)C(C)C)[C@@H](C)CC)C(=O)N[C@@H](C)C(=O)N[C@@H](C)C(=O)N[C@@H](CCC(N)=O)C(=O)N[C@@H](CC(=O)O)C(=O)N[C@@](C)(Cc1ccccc1)C(=O)N[C@H](C(=O)N[C@@H](CCC(N)=O)C(=O)NC(C)(C)C(=O)N[C@H](C(=O)N[C@H](C(=O)N[C@@H](CC(N)=O)C(=O)N[C@H](C(N)=O)[C@@H](C)O)[C@@H](C)CC)[C@@H](C)CC)C(C)C)C(=O)O)C(=O)O` [Peptide 131] (H-H[αMeS]QGS[αMeF]TSDVSKILDSK([PEG2-PEG2-γGlu-γGlu-Palmitoyl])AAQD[αMeF]VQ[Aib]IINT-NH2; N-terminus assumed), in assay [1], the half-maximal effective concentration (EC50) was 0.0178 nM. Besides, the “% Relative Potency Ratio” value in assay [2] came out at 68.9.

For the compound `CCCCCCCCCCCCCC(=O)N[C@@H](CCC(=O)N[C@@H](CCC(=O)NCCOCCOCCC(=O)NCCOCCOCCC(=O)NCCCC[C@H](NC(=O)[C@H](CO)NC(=O)[C@H](CC(=O)O)NC(=O)[C@H](CC(C)C)NC(=O)[C@@H](NC(=O)[C@H](CCCCN)NC(=O)[C@H](CO)NC(=O)[C@@H](NC(=O)[C@H](CC(=O)O)NC(=O)[C@H](CO)NC(=O)[C@@H](NC(=O)[C@](C)(Cc1ccccc1)NC(=O)[C@H](CO)NC(=O)CNC(=O)[C@H](CCC(N)=O)NC(=O)[C@](C)(CO)NC(=O)[C@@H](N)Cc1c[nH]cn1)[C@@H](C)O)C(C)C)[C@@H](C)CC)C(=O)N[C@@H](C)C(=O)N[C@@H](C)C(=O)N[C@@H](CCC(N)=O)C(=O)N[C@@H](CC(=O)O)C(=O)N[C@@](C)(Cc1ccccc1)C(=O)N[C@H](C(=O)N[C@@H](CCC(N)=O)C(=O)NC(C)(C)C(=O)N[C@H](C(=O)N[C@H](C(=O)N[C@@H](CC(N)=O)C(=O)N[C@H](C(N)=O)[C@@H](C)O)[C@@H](C)CC)[C@@H](C)CC)C(C)C)C(=O)O)C(=O)O` [Peptide 132] (H-H[αMeS]QGS[αMeF]TSDVSKILDSK([PEG2-PEG2-γGlu-γGlu-Myristoyl])AAQD[αMeF]VQ[Aib]IINT-NH2; N-terminus assumed), the 50% effective concentration (EC50) in assay [1] is 0.0343 nM. Also, the “% Relative Potency Ratio” value in assay [2] was determined as 71.5.

In the case of `CCCCCCCCCCCCCCCCCC(=O)N[C@@H](CCC(=O)NCCOCCOCCC(=O)NCCOCCOCCC(=O)NCCCC[C@H](NC(=O)[C@H](CO)NC(=O)[C@H](CC(=O)O)NC(=O)[C@H](CC(C)C)NC(=O)[C@@H](NC(=O)[C@H](CCCCN)NC(=O)[C@H](CO)NC(=O)[C@@H](NC(=O)[C@H](CC(=O)O)NC(=O)[C@H](CO)NC(=O)[C@@H](NC(=O)[C@](C)(Cc1ccccc1)NC(=O)[C@H](CO)NC(=O)CNC(=O)[C@H](CCC(N)=O)NC(=O)[C@](C)(CO)NC(=O)[C@@H](N)Cc1c[nH]cn1)[C@@H](C)O)C(C)C)[C@@H](C)CC)C(=O)N[C@@H](C)C(=O)N[C@@H](C)C(=O)N[C@@H](CCC(N)=O)C(=O)N[C@@H](CC(=O)O)C(=O)N[C@@](C)(Cc1ccccc1)C(=O)N[C@H](C(=O)N[C@@H](CCC(N)=O)C(=O)NC(C)(C)C(=O)N[C@H](C(=O)N[C@H](C(=O)N[C@@H](CC(N)=O)C(=O)N[C@H](C(N)=O)[C@@H](C)O)[C@@H](C)CC)[C@@H](C)CC)C(C)C)C(=O)O` [Peptide 133] (H-H[αMeS]QGS[αMeF]TSDVSKILDSK([PEG2-PEG2-γGlu-Stearoyl])AAQD[αMeF]VQ[Aib]IINT-NH2; N-terminus assumed), the concentration giving a half-maximal response (EC50) was 0.03 nM in assay [1] and 0.00106 nM in assay [2] (Table 6, peptides modified at position 17, cAMP in CHO hGLP-1R cells, geometric mean, read-out: hGLP-1R EC50). For the same compound, in assay [2], the “% Relative Potency Ratio” value came to 55.9.
